Columns and labels:
CD19+CD20+ B cells = experiment: Anti-CD22 (TNT127):CpG conjugates on human PBMCs, CD40 on CD19+ B cells (Examples 19-20); format: cell-based; conditions: conjugated to antibody TNT127 (DAR1), compared to the 12070 conjugate
Description: Trima residuals were received from Vitalant and diluted 1:2 with Phosphate Buffered Saline (PBS, Gibco). Diluted blood was split into two tubes and underplayed with 15 mL FICOLL® PAQUE medium (GE Healthcare). Tubes were centrifuged for 30 minutes at 400×g. PBMCs were collected from the interface, resuspended and washed in FACS buffer (PBS with 0.5% Bovine Serum Albumin (Gibco)). After one wash, PBMCs were resuspended in Complete RPMI (RPMI+10% FBS). PBMCs were immediately plated onto a 96-well format (500K/well) in Complete RPMI. Five-fold serial dilutions were added to the cells from 100 nM to 6.4 pM conjugated antibody at 37° C. under 5% CO2 for 48 hours. Cells were pelleted by centrifugation for five minutes at 400×g and stained at 4° C. in Fixable Viability Dye eFluor 780 (Thermo Fisher Scientific) diluted 1:4000 in PBS. Cells were centrifuged and stained at 4° C. in FACS buffer for 30 minutes containing FcR Blocking Reagent (Miltenyi Biotec), anti-CD19, anti-CD20, anti-CD40, anti-HLADR and anti-CD80. Cells were centrifuged and washed twice in FACS buffer and fixed in 0.5% paraformaldehyde. Cells were analyzed on ATTUNE™ NxT Flow Cytometer (Thermo Fisher Scientific), with subsequent data analysis by FLOWJO™ 10.7 (Treestar). Dead cells were excluded by gating on the eFluor 780-negative population.
The activity of CD22 antibody-CpG conjugates DAR1 and DAR2 were compared for activity.

CD19 positive B cells = experiment: Free CpG activity on CD40 expression by CD19+ B cells in human PBMCs (Examples 16-17); format: cell-based; conditions: compared with 12070
Description: (§1) Trima residuals were received from Vitalant and diluted 1:2 with Phosphate Buffered Saline (PBS, Gibco). Diluted blood was split into two tubes and underplayed with 15 mL Ficoll-Paque (GE Healthcare). Tubes were centrifuged for 30 minutes at 400×g. PBMCs were collected from the interface, resuspended and washed in FACS buffer (PBS with 0.5% Bovine Serum Albumin (Gibco)). After one wash, PBMCs were resuspended in Complete RPMI (RPMI+10% FBS).
PBMCs were immediately plated onto a 96-well format (500K/well) in Complete RPMI. Five-fold serial dilutions were added to the cells from 1 uM to 64 pM of CpG polynucleotides at 37° C. under 5% CO2 for 48 hours. Cells were pelleted by centrifugation for five minutes at 400×g and stained at 4° C. in Fixable Viability Dye eFluor 780 (Thermo Fisher) diluted 1:4000 in PBS. Cells were centrifuged and stained at 4° C. in FACS buffer for 30 minutes containing FcR Blocking Reagent (Miltenyi Biotec), anti-CD19, anti-CD20, anti-CD40, anti-HLADR and anti-CD80. Cells were centrifuged and washed twice in FACS buffer and fixed in 0.5% paraformaldehyde. Cells were analyzed on ATTUNE™ NxT Flow Cytometer (Thermo Fisher Scientific), with subsequent data analysis by FLOWJO™ 10.7 (Treestar). […] B cells were identified as CD19+CD20+ cells and level of activation marker was assessed by median fluorescent intensity. […]

[1] = test system: EMT6 mouse mammary carcinoma cells; experiment: EMT6 breast cancer model, intratumoral administration; format: in vivo, BALB/c mice; conditions: intratumorally 2 doses every 3 days at 24 uM
Description: 100 uL of suspended cells were subcutaneously implanted into the right flank of 6 week old female BALB/c mice (Charles River). Tumor size was measured and recorded twice a week with calipers starting 7 days post implantation until duration of the study, approximately 25 days later. Tumor volume was calculated using the following formula: (length×width×width)/2. Once tumors reached on average 180 mm^3, approximately 7 days post implantation, mice were randomized by tumor size and treatments were initiated.

B cells = experiment: B cell activation by anti-CD22 (RFB4):CpG conjugates in human PBMCs (Examples 2 and 4); format: cell-based; conditions: for B cell activation (CD19, CD40, CD69, CD86, HLADR expression): RFB4 conjugates, DAR1, 96 hours; for B cell activation as determined by CD80 expression: conjugate to anti-CD22 antibody (SEQ ID NO: 56 and 57), DAR1, compared with conjugate of CpG (SEQ ID NO: 3) and naked CpG
Description: (§2) PBMCs were immediately plated onto a 96-well format (500K/well) in Complete RPMI (RPMI+10% FBS). Five-fold serial dilutions were added to the cells from 100 nM to 6.4 pM of antibody and conjugated antibody and 1 uM to 64 pM of CpG polynucleotides at 37° C. under 5% CO2 for 48 to 96 hours. Cells were pelleted by centrifugation for five minutes at 400×g and stained at 4° C. in Fixable Viability Dye eFluor 780 (Thermo Fisher Scientific) diluted 1:4000 in PBS. Cells were centrifuged and stained at 4° C. in FACS buffer for 30 minutes containing FcR Blocking Reagent (Miltenyi Biotec), anti-CD19, anti-CD20, anti-CD40, anti-HLADR and anti-CD80 for B cell assays and anti-CD14, anti-CD3, anti-CD19, anti-CD14, anti-CD123, anti-CD11 c and anti-CD86 for pDC assays. Cells were centrifuged and washed twice in FACS buffer and fixed in 0.5% paraformaldehyde. CountBright™ Absolute Counting Beads (Thermo Fisher) were added to each well to count the number of cells. Cells were analyzed on ATTUNE™ NxT Flow Cytometer (Thermo Fisher Scientific), with subsequent data analysis by Flowjo 10.7 (Treestar). Dead cells were excluded by gating on the eFluor 780-negative population. Lineage specific cells were first excluded (CD19, CD3, CD14) prior to gating CD123^+CD11c^− cells to identify pDC and gating CD19^+, CD20^+ or CD19^+CD20^+ cells to identify B cells.
as §1, with “1:4” for “1:2”, “interface and” for “interface,”, “resuspended” for “resuspended and washed”, “(Gibco)).” for “(Gibco)). After one wash, PBMCs were resuspended in Complete RPMI (RPMI+10% FBS).”
as §2, with “antiCD11” for “anti-CD11”, “COUNTBRIGHT™” for “CountBright™”, “Fisher Scientific)” for “Fisher)”
Various B-cell and pDC specific antibodies were conjugated with CpG 12070 (SEQ ID NO: 3), CpG (SEQ ID NOs: 9, 12, 20, 27 and 28), all with the DAR1 configuration, at their C-terminus heavy chain Q-tag ([…]) (SEQ ID NO: 49) via transglutaminase reaction. The conjugated antibodies were subsequently tested for their effects on proliferation and/or activation. […] As shown in FIGS. 5A-5D, the anti-CD22-CpG antibodies enhanced the activation of B cells as compared to naked CpG polynucleotide 12070 (SEQ ID NO: 3) and human IgG control antibody after 96 hours. As determined by CD19, CD40, CD69, CD86, and HLADR expression, only anti-CD22-CpG and CpG alone induced B cell activation. Direct delivery of CpG by a targeting antibody results in higher activation as compared to CpG alone.

Substance	B cell activation as determined by CD80 expression (B cells)	further results
7-6: CpG oligonucleotide: "CpG 7-6 (SEQ ID NO:34)" (DNA UCGTCGTGTCGTTT; chemically modified, pattern not given here)	–	CD40 expression (CD19+CD20+ B cells): substantially better activity; CD40 expression in PBMC from three donors (D559, D804 and D643) (CD19 positive B cells): higher activities
CpG-4253: "the free CpG (CpG-4253)"; apparently "4523 murine CpG oligonucleotide", "tucgtcgtgacgtt-c3" (SEQ ID NO:121) (DNA TUCGTCGTGACGTT; 3' C3 spacer, chemistry not fully specified; listed as Mus musculus)	–	anti-tumor potency [1]: showed anti-tumor potency
SEQ ID NO: 9: "modified CpGs"; tested "as an antibody-CpG conjugate" "to anti-CD22 antibody (SEQ ID NO: 56 and SEQ ID NO: 57)" (DNA UCGTCGTGTCGTTT; modified CpG; (1)..(14) Linkages as shown in Table 2 of the specification; (1)..(14) Modified as shown in Table 2 of the specification)	increased B cell activation	B cell activation (CD19, CD40, CD69, CD86, HLADR expression) (B cells): enhanced activity
SEQ ID NO: 12: "modified CpGs"; tested "as an antibody-CpG conjugate" "to anti-CD22 antibody (SEQ ID NO: 56 and SEQ ID NO: 57)" (DNA UCGTCGTGTCGTTT; modified CpG; (1)..(14) Linkages as shown in Table 2 of the specification; (1)..(14) Modified as shown in Table 2 of the specification)	increased B cell activation	–
SEQ ID NO: 13: "modified CpGs"; tested "as an antibody-CpG conjugate" "to anti-CD22 antibody (SEQ ID NO: 56 and SEQ ID NO: 57)" (DNA UCGTCGTGTCGTTT; modified CpG; (1)..(14) Linkages as shown in Table 2 of the specification; (1)..(14) Modified as shown in Table 2 of the specification)	increased B cell activation	–
SEQ ID NO: 15: "modified CpGs"; tested "as an antibody-CpG conjugate" "to anti-CD22 antibody (SEQ ID NO: 56 and SEQ ID NO: 57)" (DNA UCGTCGTGTCGTT; modified CpG; (1)..(13) Linkages as shown in Table 2 of the specification; (1)..(13) Modified as shown in Table 2 of the specification)	increased B cell activation	–
SEQ ID NO: 20: "modified CpGs"; tested "as an antibody-CpG conjugate" "to anti-CD22 antibody (SEQ ID NO: 56 and SEQ ID NO: 57)" (DNA UCGTCGTGTCGTT; modified CpG; (1)..(13) Linkages as shown in Table 2 of the specification; (1)..(13) Modified as shown in Table 2 of the specification)	increased B cell activation	B cell activation (CD19, CD40, CD69, CD86, HLADR expression) (B cells): enhanced activity
